What was measured:
SMMC-7721 cells = assay: MTT cytotoxicity assay, SMMC-7721; assay type: cell-based, human; conditions: 48 h exposure
Protocol: (§1) The in vitro cytotoxic activities of synthesized compounds were evaluated against two human hepatocarcinoma cell lines (SMMC-7721 and HepG2) and the human normal hepatocyte cell line (LO2) via MTT assay. All tested compounds were dissolved in DMSO and the stock solutions were diluted by DMEM medium before treatment of the cultured cells. […] Cell lines were obtained from American Tissue Culture Collection (ATCC). Briefly, different tumor cells were grown in DMEM medium supplemented with 10% fetal bovine serum, penicillin (100 U/mL), and streptomycin (50 μg/mL). Cells were harvested at log phase of growth and seeded in 96-well plates (100 μL/well at a density of 2 × 10^5 cells/mL). After 24 h incubation at 37 °C and 5% CO2 to allow cell attachment, cultures were exposed to various concentrations of the isolated compounds for 48 h. Finally, MTT solution (2.5 mg/mL in PBS) was added (40 μL/well). Plates were further incubated for 4 h at 37 °C, and the formazan crystals formed were dissolved by adding 150 μL/well of DMSO. Absorption at 570 nm was measured with an ELISA plate reader. […] Doxorubicin, camptothecin, and etoposide (VP-16) were co-assayed as positive controls.

HepG2 cells = assay: MTT cytotoxicity assay, HepG2; assay type: cell-based, human; conditions: 48 h exposure
Protocol: as §1

LO2 cells = assay: MTT cytotoxicity assay, normal hepatocyte LO2; assay type: cell-based; conditions: Homo sapiens, L02, 48 h exposure, normal hepatocyte cell line
Protocol: as §1

DNA topoisomerase I = target: T1, DNA topoisomerase I (Bos taurus, UniProt F1MN93); assay: Topoisomerase I relaxation assay (supercoiled pBR322); assay type: biochemical; conditions: for inhibition at 100 µM: 100 μM compound, read-out: Topo I Inhibition (%) 100 μM; for inhibition at 20 µM: 20 μM compound, read-out: Topo I Inhibition (%) 20 μM
T1 construct: purchased TaKaRa, Kyoto, Japan
T1 sequence (F1MN93 1-767): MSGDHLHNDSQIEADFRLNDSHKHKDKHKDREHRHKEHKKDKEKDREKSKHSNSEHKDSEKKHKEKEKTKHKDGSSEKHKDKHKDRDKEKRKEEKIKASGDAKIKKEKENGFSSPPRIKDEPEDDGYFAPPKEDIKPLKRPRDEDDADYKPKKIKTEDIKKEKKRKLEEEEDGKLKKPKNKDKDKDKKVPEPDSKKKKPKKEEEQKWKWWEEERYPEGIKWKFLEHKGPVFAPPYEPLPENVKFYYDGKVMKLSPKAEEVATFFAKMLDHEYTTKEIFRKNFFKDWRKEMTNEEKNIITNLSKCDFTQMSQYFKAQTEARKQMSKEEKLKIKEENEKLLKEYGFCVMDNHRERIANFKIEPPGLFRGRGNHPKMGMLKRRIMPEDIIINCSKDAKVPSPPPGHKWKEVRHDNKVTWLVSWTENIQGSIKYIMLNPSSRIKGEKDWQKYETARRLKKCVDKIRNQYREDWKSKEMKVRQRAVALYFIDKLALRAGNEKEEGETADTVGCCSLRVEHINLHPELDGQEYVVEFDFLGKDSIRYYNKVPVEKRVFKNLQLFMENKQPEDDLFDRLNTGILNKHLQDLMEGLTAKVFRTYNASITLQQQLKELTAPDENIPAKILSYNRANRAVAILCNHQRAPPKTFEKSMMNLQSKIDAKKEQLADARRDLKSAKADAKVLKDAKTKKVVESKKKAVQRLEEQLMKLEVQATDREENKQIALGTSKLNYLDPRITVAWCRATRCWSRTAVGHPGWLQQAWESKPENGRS
Protocol: The effect of the tested compounds on Topo I and II activities were evaluated by Topo I/II relaxation assays. The reaction products, relaxed DNA could be distinguished from supercoiled DNA by gel electrophoresis and visualized using gel imaging system. The activity of DNA topoisomerase I (TaKaRa, Kyoto, Japan) was determined by measuring the relaxation of supercoiled DNA pBR322 [32]. Camptothecin was used as a positive control. The reaction mixture was prepared according to the manufacture's protocol, and incubated at 37 °C for 30 min. The reactions were terminated by adding dye solution containing 1% SDS, 0.02% bromophenol blue and 50% glycerol. The mixtures were applied to 1% agarose gel and subjected to electrophoresis for 1 h, in 1× TAE buffer (40 mM Tris-acetate, 1 mM EDTA). Gels were stained for 30 min in 60 mL 1× TAE buffer with ethidium bromide (0.5 μg/mL). DNA bands were visualized by transillumination with UV light and then photographed by a Gel Doc XR+ System (BIO-RAD, Hercules, CA, USA).

Human Topoisomerase IIα = target: T2, Human Topoisomerase IIα (Homo sapiens, UniProt P11388); assay: Topoisomerase II relaxation assay (supercoiled pBR322); assay type: biochemical; conditions: for inhibition at 20 µM: 20 μM compound, read-out: Topo II Inhibition (%) 20 μM; for inhibition at 100 µM: 100 μM compound, read-out: Topo II Inhibition (%) 100 μM
T2 construct: purchased USB, Affymetrix, Waltham, MA, USA
Protocol: The effect of the tested compounds on Topo I and II activities were evaluated by Topo I/II relaxation assays. The reaction products, relaxed DNA could be distinguished from supercoiled DNA by gel electrophoresis and visualized using gel imaging system. Human Topoisomerase IIα activity was detected by measuring the relaxation of supercoiled pBR322 plasmid DNA [22]. […] For inhibition studies, the compounds were pre-incubated with human Topo IIα and DNA for 15 min. Compounds were used at the appropriate concentrations by dissolving in 2% (v/v) DMSO. DMSO didn't show detrimental effect on the enzyme activity at concentration up to 2% (v/v). Reaction mixture was incubated at 37 °C for 30 min and stopped by the addition of 7 mM EDTA. Reaction product was mixed with DNA loading dye and electrophoresed on 1% TAE-Agarose. The gel was stained with ethidium bromide (0.5 μg/mL) for 30 min, destained twice in 1× TAE buffer, and then visualized using a BIO-RAD Gel Doc XR+ System. Etoposide (VP-16) was co-assayed as a positive control.

T2 sequence (P11388 whole entry): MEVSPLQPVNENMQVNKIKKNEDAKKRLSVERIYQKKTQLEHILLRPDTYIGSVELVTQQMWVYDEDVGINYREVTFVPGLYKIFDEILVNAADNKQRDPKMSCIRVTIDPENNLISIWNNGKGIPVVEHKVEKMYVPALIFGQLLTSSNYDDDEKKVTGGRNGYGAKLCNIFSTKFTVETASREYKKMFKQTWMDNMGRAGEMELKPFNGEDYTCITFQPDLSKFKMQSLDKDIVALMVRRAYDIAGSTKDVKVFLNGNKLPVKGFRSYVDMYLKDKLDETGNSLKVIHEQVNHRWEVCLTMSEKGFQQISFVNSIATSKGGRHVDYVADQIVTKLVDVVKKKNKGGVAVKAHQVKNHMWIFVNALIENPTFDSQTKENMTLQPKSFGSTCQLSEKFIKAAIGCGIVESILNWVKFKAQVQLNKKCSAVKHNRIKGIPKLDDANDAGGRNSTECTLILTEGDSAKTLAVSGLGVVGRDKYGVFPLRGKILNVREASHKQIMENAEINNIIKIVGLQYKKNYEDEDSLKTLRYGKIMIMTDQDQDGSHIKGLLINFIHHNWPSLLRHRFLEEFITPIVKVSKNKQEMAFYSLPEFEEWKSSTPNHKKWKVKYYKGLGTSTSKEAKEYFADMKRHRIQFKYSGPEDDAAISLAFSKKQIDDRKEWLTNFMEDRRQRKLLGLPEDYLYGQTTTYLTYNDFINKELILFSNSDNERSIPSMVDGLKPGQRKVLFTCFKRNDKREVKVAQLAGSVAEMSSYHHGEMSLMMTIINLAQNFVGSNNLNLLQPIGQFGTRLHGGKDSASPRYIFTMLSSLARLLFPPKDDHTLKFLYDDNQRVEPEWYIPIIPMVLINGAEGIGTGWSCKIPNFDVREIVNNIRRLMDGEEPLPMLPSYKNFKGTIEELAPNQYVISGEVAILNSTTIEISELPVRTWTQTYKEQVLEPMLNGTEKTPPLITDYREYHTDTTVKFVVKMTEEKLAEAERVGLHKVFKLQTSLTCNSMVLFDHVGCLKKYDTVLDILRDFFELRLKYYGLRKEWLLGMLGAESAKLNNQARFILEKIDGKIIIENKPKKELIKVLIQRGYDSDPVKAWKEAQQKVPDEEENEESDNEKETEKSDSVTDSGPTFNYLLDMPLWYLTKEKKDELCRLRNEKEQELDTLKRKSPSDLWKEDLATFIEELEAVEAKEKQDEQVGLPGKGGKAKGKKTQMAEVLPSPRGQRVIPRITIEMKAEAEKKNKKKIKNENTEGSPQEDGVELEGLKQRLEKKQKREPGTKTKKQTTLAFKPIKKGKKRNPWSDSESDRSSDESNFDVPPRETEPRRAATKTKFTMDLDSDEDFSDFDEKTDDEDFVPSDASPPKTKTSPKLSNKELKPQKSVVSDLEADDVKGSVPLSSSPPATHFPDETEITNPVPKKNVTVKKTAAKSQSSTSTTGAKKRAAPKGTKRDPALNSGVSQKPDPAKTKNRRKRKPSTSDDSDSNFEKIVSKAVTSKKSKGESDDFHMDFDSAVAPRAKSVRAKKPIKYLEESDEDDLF

Structure (SMILES) | IC50 (SMMC-7721 cells; Homo sapiens, SMMC-7721, 48 h) | IC50 (HepG2 cells; Homo sapiens, HepG2, 48 h) | IC50 (LO2 cells) | inhibition at 100 µM (DNA topoisomerase I) | inhibition at 20 µM (Human Topoisomerase IIα) | inhibition at 100 µM (Human Topoisomerase IIα) | melting point | IC50 (SMMC-7721 cells) | IC50 (HepG2 cells) | inhibition at 20 µM (DNA topoisomerase I)
Cc1ccc2[nH]c3c(c2c1)C[C@@]1(C)C(CC[C@]2(C)C1CC=C1C4[C@@H](C)[C@H](C)CC[C@]4(C(=O)NCCCN4CCOCC4)CC[C@]12C)C3(C)C (some centres unmarked) [5e, N-(3-Morpholinopropyl)-5′-methyl-1′H-ursa-2,12-dieno[3,2-b]indol-28-carboxamide] | 3.75 ± 0.37 µM | 5.27 ± 0.67 µM | 28.6 ± 0.76 µM | 0% | 31.5% | 70.8% | 108 to 110 °C |  |  | 
Cc1ccc2[nH]c3c(c2c1)C[C@@]1(C)C(CC[C@]2(C)C1CC=C1C4[C@@H](C)[C@H](C)CC[C@]4(C(=O)NCCCCN)CC[C@]12C)C3(C)C (some centres unmarked) [6a, N-(4-Aminobutyl)-5′-methyl-1′H-ursa-2,12-dieno[3,2-b]indol-28-carboxamide] | ~1 µM | ~1 µM | 15.2 ± 1.15 µM | 28.8% | 27% | 71.1% | 256 to 258 °C | 1.21 ± 0.19 µM | 1.32 ± 0.21 µM | 13.7%
Cc1ccc2[nH]c3c(c2c1)C[C@@]1(C)C(CC[C@]2(C)C1CC=C1C4[C@@H](C)[C@H](C)CC[C@]4(C(=O)NCCCCN(C)C)CC[C@]12C)C3(C)C (some centres unmarked) [6b, N-(4-(Dimethylamino)butyl)-5′-methyl-1′H-ursa-2,12-dieno[3,2-b]indol-28-carboxamide] | 2.43 ± 0.21 µM | 2.91 ± 0.18 µM | 18.2 ± 1.64 µM | 15.1% | 31.7% | 69% | 163 to 165 °C |  |  | 0%
CCN(CC)CCCCNC(=O)[C@]12CC[C@@H](C)[C@H](C)C1C1=CCC3[C@@]4(C)Cc5c([nH]c6ccc(C)cc56)C(C)(C)C4CC[C@@]3(C)[C@]1(C)CC2 (some centres unmarked) [6c, N-(4-(Diethylamino)butyl)-5′-methyl-1′H-ursa-2,12-dieno[3,2-b]indol-28-carboxamide] | 3.62 ± 0.23 µM | 3.45 ± 0.25 µM | 28.4 ± 2.98 µM | 16.8% | 35.2% | 70% | 132 to 134 °C |  |  | 0%
Cc1ccc2[nH]c3c(c2c1)C[C@@]1(C)C(CC[C@]2(C)C1CC=C1C4[C@@H](C)[C@H](C)CC[C@]4(C(=O)NCCCCN4CCCCC4)CC[C@]12C)C3(C)C (some centres unmarked) [6d, N-(4-(Piperidin-1-yl)butyl)-5′-methyl-1′H-ursa-2,12-dieno[3,2-b]indol-28-carboxamide] | 2.72 ± 0.31 µM | 2.31 ± 0.21 µM | 18.7 ± 1.36 µM | 0% | 32.8% | 72.5% | 121 to 123 °C |  |  | 
Cc1ccc2[nH]c3c(c2c1)C[C@@]1(C)C(CC[C@]2(C)C1CC=C1C4[C@@H](C)[C@H](C)CC[C@]4(C(=O)NCCNC(=O)[C@]45CC[C@@H](C)[C@H](C)C4C4=CCC6[C@@]7(C)Cc8c([nH]c9ccc(C)cc89)C(C)(C)C7CC[C@@]6(C)[C@]4(C)CC5)CC[C@]12C)C3(C)C (some centres unmarked) [7a, N,N′-(ethane-1,2-diyl)-bis(5′-methyl-1′H-ursa-2,12-dieno[3,2-b]indol-28-carboxamide)] | > 50 µM | > 50 µM | > 50 µM | 0% | 9.7% | 23.8% | 301 to 303 °C |  |  | 

Source: publication PMC7215373, “Design, Synthesis, and Anticancer Evaluation of Novel Indole Derivatives of Ursolic Acid as Potential Topoisomerase II Inhibitors” (International Journal of Molecular Sciences, 2020)
